Measurements taken from US20080069795A1, “Amelioration of Drug-Induced Toxicity” (The John Hopkins University, priority 2004, published 2008).

Experiments:
[1] = test system: renal myeloperoxidase (MPO) activity; assay: Kidney myeloperoxidase assay after cisplatin; format: in vivo, mouse; settings: 72 hr after cisplatin
Procedure: Renal myeloperoxidase (MPO) activity was measured as described by Laight et al. (18) in the nu/nu mice and wild type mice at 72 hr after receiving cisplatin to semi-quantify neutrophils and macrophages infiltration. Briefly, kidney tissue was homogenized in a solution containing 0.5% (wt/vol) hexadecyltrimethylammonium bromide dissolved in 50 mM potassium phosphate buffer (pH 6.0) and centrifuged for 30 min at 20,000 g at 4° C. Samples were incubated in a water bath at 60° C. for 2 hr and then centrifuged at 4,000 g for 12 min. The collected supernatant (40 μl) in each sample was incubated with 160 μl of a reaction solution containing 1.6 mM tetramethylbenzidine and 3 mM H2O2 diluted in 80 mM phosphate buffer (pH 5.4) in a 96-well microplate. The rate of change in absorbance at 630 nm over 5 min was measured spectrophotometrically. MPO activity was expressed as absorbance changed per minute per 100 mg of wet tissue.

[2] = test system: wild type, nu/nu, CD4-/- and CD8-/- mice; assay: Assessment of renal function (serum creatinine) after cisplatin; format: in vivo, mouse
Procedure: (§1) Cisplatin (cis-diammineplatinum II dichloride, Sigma-Aldrich, St.Louis, Mo.) was dissolved in 0.9% of saline at a concentration of 1 mg/ml. Mice were given a single i.p. injection either with cisplatin (40 mg/kg body weight) or with equal volume of saline. […] For kidney T cell immunohistochemical staining, three wild type mice in each group were sacrificed at 1 hr, 6 hr, 12 hr, 24 hr or 72 hr after cisplatin injection. All nu/nu or knockout mice and their littermates were sacrificed at 24 hr or 72 hr after the cisplatin administration for histology or for kidney cytokine array. All collected mice kidneys were either fixed in 10% buffered formalin for histology/immunohistochemistry, or snap frozen with liquid nitrogen for tissue cytokine array.
Blood samples were obtained from mice tails prior to (0 hr) and at 24 hr, 48 hr and 72 hr after cisplatin injection. Serum creatinine was measured as a marker of renal dysfunction by a Roche Cobas Fara automated system (Roche, Nutley, N.J., USA) using a Creatinine 557 kit (Sigma Diagnostics, St. Louis, Mo., USA).

patients = settings: after a single dose of cisplatin; cited from earlier work
[3] = test system: wild type, nu/nu, CD4-/- and CD8-/- mice; assay: Survival of mice after a single i.p. dose of cisplatin; format: in vivo, mouse; settings: for survival rate: cisplatin 40 mg/kg i.p. single dose; for survival rate / survival: 72 hr
Procedure: All animal study protocols have been reviewed and approved by the Animal Care and Use Committee of Johns Hopkins University (IACUC), and all experiments were conducted according to NIH guidelines. T cell deficient athymic male mice (B6.Cg-Foxn1^nu, nu/nu) and their C57BL/6 wild type male littermates (6-8 wks, weighing 20-25 g) were purchased from The Jackson Laboratory (Bar Harbor, Me., USA). The two main defects of T cell deficient mice homozygous for the nu/nu spontaneous mutation (Foxn/nu, formerly Hfh11nu) are the abnormal hair growth and defective development of the thymus. Consequently, homozygous nu/nu mice lack T cells and cell-mediated immunity. Genetically matched wild type male littermates were used as controls and as donors of T cells adoptive transfer. CD4-deficient mice (B6.129S2-Cd4tm1Mak), CD8-deficient mice (B6.129S2-Cd8atm1Mak) and their wild type littermates were also purchased from The Jackson Laboratory. Mice were held under pathogen-free conditions in JHMI animal facility with air conditioning, 14 hr/10 hr of light and dark cycle and were free access to food and water during the experiments.
as §1
Data are expressed as mean±standard error of mean (SEM) and are compared by unpaired, two-tailed Student t tests for single comparison or by ANOVA Post Hoc test for multiple comparison. Kaplan-Meier analysis was used for mice survival analyses. Statistical significance of difference was defined when the P-value was less than 0.05.

[4] = test system: IL-1β, KC, IFN-γ and TNF-α in the mouse kidney; assay: Kidney cytokine protein array after cisplatin; format: in vivo
Procedure: as §1
In order to examine pro-inflammatory molecules generated by cisplatin, protein levels of IL-1β, IFN-γ, TNF-α and KC was measured in the mice kidney by using Bio-Rad Bio-Plex™ multiple cytokines array technique (Bio-Rad Laboratories Inc., Hercules, Calif.) described elsewhere in depth (19) with a simplified small template containing only above four cytokine/chemokines. Briefly, snap frozen kidney tissues were homogenized in a kit-attached cell-lysis buffer, and the homogenates were centrifuged at 12,000 rpm for 15 min at 4° C. Total protein concentration in each supernatant was determined by using a Bio-Rad Protein Assay I(it, and was adjusted to 500 μg/ml with the cell lysis buffer. Each sample was first incubated with a mixture of all types of micro-beads for 90 min at room temperature (RT) followed by an incubation with biotinylated detection antibodies for 30 min and then with a strepavidin-coupled phycoerythrin for 10 min (RT). Finally, the samples were subjected to a flow cytometric system. All acquired data was analyzed using Bio-Plex Manager™ 3.0 software (Bio-Rad) and corrected by total protein concentration (pg/mg protein).

mice kidneys = assay: Histological examination, semi-quantitative renal tubular injury score after cisplatin; format: in vivo, mouse; settings: 72 hr after cisplatin 40 mg/kg, scale 0-4
Procedure: as §1
Formalin-fixed paraffin-embedded sections of mice kidneys tissues were cut and stained with hematoxylin and eosin (H&E). Renal tubular injury was assessed using a semi-quantitative scale. A pathologist blinded to the experiments scored the degrees of tubular injury. The magnitude of tubular epithelial cell loss, necrosis, intra-tubular debris and tubular cast formation was scored into six levels based on the percentage of affected tubules in a high power field (HPF) under light microscope. (0: none; 0.5: <10%; 1: 10 to 25%; 2: 25 to 50%; 3: 50 to 75%; 4: >75%).

[5] = test system: CD3 positive cells in mice kidney; assay: Immunohistochemical staining of T cells (CD3) in post cisplatin kidneys; format: in vivo, mouse; settings: wild type mice
Procedure: as §1
In order to evaluate T cell infiltrating into post cisplatin kidneys as a potential mechanism of action, immunohistochemical staining for T cell was performed on formalin-fixed kidney tissue. Briefly, after deparaffinization and rehydration, kidney sections were immersed in 3% hydrogen peroxide methanol for 5 minutes to block endogenous peroxidase. […] All cisplatin kidney sections were examined by a pathologist and a nephrologist in a blinded fashion, and CD3 positive cells were counted in at least 10 cortico-medulary fields.

[6] = wild type mice, 72 hr after cisplatin injection

Structure (SMILES): N.N.[Cl][Pt][Cl] [cisplatin, cis-diamminedichloroplatinum II]
- increase in renal MPO activity ([1]; nu/nu mice compared with wild type mice): significantly blunted
- renal MPO activities ([1]; wild type and nu/nu mice, vs individual saline controls): significant increase
- SCr ([2]; CD4-/- mice, 24 hr post cisplatin 40 mg/kg i.p.): 0.50 ± 0.07 mg/dL
- SCr ([2]; CD8-/- mice, 24 hr post cisplatin 40 mg/kg i.p.): 0.67 ± 0.08 mg/dL
- serum creatinine ([2]; nu/nu mice alone, 72 hr after cisplatin 40 mg/kg): 0.58 ± 0.06 mg/dL
- serum creatinine ([2]; nu/nu mice transferred with T cells, 72 hr after cisplatin 40 mg/kg): 1.23 ± 0.11 mg/dL
- serum creatinine ([2]; nu/nu mice, 24 hr after cisplatin 40 mg/kg): 0.60 ± 0.05 mg/dL
- serum creatinine ([2]; nu/nu mice, 48 hr after cisplatin 40 mg/kg): 0.56 ± 0.05 mg/dL
- serum creatinine ([2]; wild type mice, 24 hr after cisplatin 40 mg/kg (nu/nu study)): 1.05 ± 0.11 mg/dL
- SCr ([2]; wild type mice, 24 hr post cisplatin 40 mg/kg i.p. (CD4/CD8 study)): 1.74 ± 0.25 mg/dL
- serum creatinine ([2]; wild type mice, 48 hr after cisplatin 40 mg/kg): 2.09 ± 0.49 mg/dL
- serum creatinine ([2]; wild type mice, 72 hr after cisplatin 40 mg/kg): 3.61 ± 0.32 mg/dL
- patients who developed renal dysfunction (patients): 25-30%
- survival rate ([3]; C57BL/6 wild type littermates of nu/nu mice): 58%
- survival ([3]; CD4-/- mice, cisplatin 40 mg/kg i.p.): 100%
- mice died by 72 hr after cisplatin treatment ([3]; CD4 deficient mice, cisplatin 40 mg/kg i.p.): 0/6
- survival ([3]; CD8-/- mice, cisplatin 40 mg/kg i.p.): 80%
- mice died by 72 hr after cisplatin treatment ([3]; CD8 deficient mice, cisplatin 40 mg/kg i.p.): 1/6
- survival rate ([3]; nu/nu (T cell deficient) mice): 100%
- survival ([3]; nu/nu mice with T cells transfer, cisplatin 40 mg/kg): 80%
- mice dead by 72 hr after injection ([3]; nu/nu mice, cisplatin 40 mg/kg i.p.): 0/12
- survival ([3]; wild type littermates of CD4-/- and CD8-/- mice, cisplatin 40 mg/kg i.p.): 50%
- mice died by 72 hr after cisplatin treatment ([3]; wild type littermates of CD4/CD8 deficient mice, cisplatin 40 mg/kg i.p.): 7/12
- mice dead by 72 hr after injection ([3]; wild type littermates of nu/nu mice, cisplatin 40 mg/kg i.p.): 6/14
- expression of pro-inflammatory molecules (IL-1β, KC, TNF-α) in the kidney ([4]; nu/nu mice treated with cisplatin compared to wild type mice): reduced expression
- renal IFN-γ protein levels ([4]; wild type and nu/nu mice, any time point (24 hr, 72 hr) after cisplatin): no increase
- renal IL-1β protein level [4, 6]: 53.43±2.61 pg/mg protein
- renal KC protein level [4, 6]: 338.30±27.04 pg/mg protein
- renal TNF-α protein level [4, 6]: 707.40±66.28 pg/mg protein
- renal tubular injury score (mice kidneys; nu/nu mice): 0.22±0.08
- renal tubular injury score (mice kidneys; wild type mice): 1.44±0.15
- CD3 positive cells in the kidney ([5]; as early as 1 hr post cisplatin, vs saline): markedly increased
- time of peak of kidney T cell increase ([5]; single dose of cisplatin, declined by 24 hr): 12 h
